Source: patent US11083725B2 (priority 2014, dated 2021)

System: NHBE cells
Experiment: Biolog metabolic array: substrate use by NHBE cells with or without CA09 infection
Format: cell-based, human
Conditions: for Substrate use, 590 nm absorbance normalized to zero hour, 1 hr: Biolog PMM2, 1 hr; for Substrate use, 590 nm absorbance normalized to zero hour, 5 hr: Biolog PMM2, 5 hr; for Substrate use, 590 nm absorbance normalized to zero hour, 7 hr: Biolog PMM2, 7 hr
[1] = Control (uninfected) NHBE cells
[2] = Virus (CA09-infected NHBE cells, MOI 1)
[3] = Virus: CA09-infected NHBE cells, MOI 1, Biolog PMM2
[4] = Virus (CA09-infected, MOI 1) NHBE cells
[5] = Virus (CA09, MOI 1) infected NHBE cells

OC[C@H]1O[C@H](OC[C@H]2OC(O)(CO)[C@@H](O)[C@@H]2O)[C@H](O)[C@@H](O)[C@@H]1O (stereo partly shown) [Palatinose]
590 nm absorbance normalized to zero hour (substrate use), 0 hr [1]: 1.00 | 590 nm absorbance normalized to zero hour (substrate use), 1 hr [1]: 1.31 | 590 nm absorbance normalized to zero hour (substrate use), 2 hr [1]: 1.79 | 590 nm absorbance normalized to zero hour (substrate use), 3 hr [1]: 1.68 | 590 nm absorbance normalized to zero hour (substrate use), 4 hr [1]: 1.81 | 590 nm absorbance normalized to zero hour (substrate use), 6 hr [1]: 2.44 | 590 nm absorbance normalized to zero hour (substrate use), 8 hr [1]: 2.16 | 590 nm absorbance normalized to zero hour (substrate use), 9 hr [1]: 2.14 | 590 nm absorbance normalized to zero hour (substrate use), 10 hr [1]: 1.94 | 590 nm absorbance normalized to zero hour (substrate use), 11 hr [1]: 1.44 | Substrate use, 590 nm absorbance normalized to zero hour, 0 hr (Control (uninfected) NHBE cells, Biolog PMM2, 0 hr): 1.00 | Substrate use, 590 nm absorbance normalized to zero hour, 1 hr [1]: 1.31 | Substrate use, 590 nm absorbance normalized to zero hour, 5 hr [1]: 2.10 | Substrate use, 590 nm absorbance normalized to zero hour, 7 hr [1]: 2.18 | 590 nm absorbance normalized to zero hour (substrate use), 0 hr [2]: 1.00 | 590 nm absorbance normalized to zero hour (substrate use), 1 hr [2]: 0.18 | 590 nm absorbance normalized to zero hour (substrate use), 2 hr [2]: 0.24 | 590 nm absorbance normalized to zero hour (substrate use), 3 hr [2]: 0.28 | 590 nm absorbance normalized to zero hour (substrate use), 4 hr [2]: 0.29 | 590 nm absorbance normalized to zero hour (substrate use), 5 hr [2]: 0.34 | 590 nm absorbance normalized to zero hour (substrate use), 6 hr [2]: 0.36 | 590 nm absorbance normalized to zero hour (substrate use), 7 hr [2]: 0.38 | 590 nm absorbance normalized to zero hour (substrate use), 8 hr [2]: 0.41 | 590 nm absorbance normalized to zero hour (substrate use), 9 hr [2]: 0.45 | 590 nm absorbance normalized to zero hour (substrate use), 10 hr [2]: 0.46 | 590 nm absorbance normalized to zero hour (substrate use), 11 hr [2]: 0.50 | 590 nm absorbance normalized to zero hour (substrate use), 0 hr [3]: 1.00 | 590 nm absorbance normalized to zero hour (substrate use), 1 hr [3]: 0.18 | 590 nm absorbance normalized to zero hour (substrate use), 2 hr [3]: 0.24 | 590 nm absorbance normalized to zero hour (substrate use), 3 hr [3]: 0.28 | 590 nm absorbance normalized to zero hour (substrate use), 4 hr [3]: 0.29 | 590 nm absorbance normalized to zero hour (substrate use), 5 hr [3]: 0.34 | 590 nm absorbance normalized to zero hour (substrate use), 6 hr [3]: 0.36 | 590 nm absorbance normalized to zero hour (substrate use), 7 hr [3]: 0.38 | 590 nm absorbance normalized to zero hour (substrate use), 8 hr [3]: 0.41 | 590 nm absorbance normalized to zero hour (substrate use), 9 hr [3]: 0.45 | 590 nm absorbance normalized to zero hour (substrate use), 10 hr [3]: 0.46 | 590 nm absorbance normalized to zero hour (substrate use), 11 hr [3]: 0.50

CCC(=O)O [Propionic Acid]
590 nm absorbance normalized to zero hour (substrate use), 1 hr [1]: 1.39 | 590 nm absorbance normalized to zero hour (substrate use), 2 hr [1]: 1.55 | 590 nm absorbance normalized to zero hour (substrate use), 3 hr [1]: 1.71 | 590 nm absorbance normalized to zero hour (substrate use), 4 hr [1]: 1.74 | 590 nm absorbance normalized to zero hour (substrate use), 6 hr [1]: 0.17 | 590 nm absorbance normalized to zero hour (substrate use), 8 hr [1]: 1.84 | 590 nm absorbance normalized to zero hour (substrate use), 9 hr [1]: 1.99 | 590 nm absorbance normalized to zero hour (substrate use), 10 hr [1]: 1.15 | 590 nm absorbance normalized to zero hour (substrate use), 11 hr [1]: 1.23 | Substrate use, 590 nm absorbance normalized to zero hour, 1 hr [1]: 1.39 | Substrate use, 590 nm absorbance normalized to zero hour, 5 hr [1]: 1.91 | Substrate use, 590 nm absorbance normalized to zero hour, 7 hr [1]: 1.75 | 590 nm absorbance normalized to zero hour (substrate use), 1 hr [4]: 1.23 | 590 nm absorbance normalized to zero hour (substrate use), 2 hr [4]: 0.70 | 590 nm absorbance normalized to zero hour (substrate use), 3 hr [4]: 0.83 | 590 nm absorbance normalized to zero hour (substrate use), 4 hr [4]: 0.93 | 590 nm absorbance normalized to zero hour (substrate use), 5 hr [4]: 1.08 | 590 nm absorbance normalized to zero hour (substrate use), 6 hr [4]: 1.15 | 590 nm absorbance normalized to zero hour (substrate use), 7 hr [4]: 1.17 | 590 nm absorbance normalized to zero hour (substrate use), 8 hr [4]: 1.18 | 590 nm absorbance normalized to zero hour (substrate use), 9 hr [4]: 1.32 | 590 nm absorbance normalized to zero hour (substrate use), 10 hr [4]: 1.11 | 590 nm absorbance normalized to zero hour (substrate use), 11 hr [4]: 1.26 | 590 nm absorbance normalized to zero hour (substrate use), 1 hr [3]: 1.23 | 590 nm absorbance normalized to zero hour (substrate use), 2 hr [3]: 0.70 | 590 nm absorbance normalized to zero hour (substrate use), 3 hr [3]: 0.83 | 590 nm absorbance normalized to zero hour (substrate use), 4 hr [3]: 0.93 | 590 nm absorbance normalized to zero hour (substrate use), 5 hr [3]: 1.08 | 590 nm absorbance normalized to zero hour (substrate use), 6 hr [3]: 1.15 | 590 nm absorbance normalized to zero hour (substrate use), 7 hr [3]: 1.17 | 590 nm absorbance normalized to zero hour (substrate use), 8 hr [3]: 1.18 | 590 nm absorbance normalized to zero hour (substrate use), 9 hr [3]: 1.32 | 590 nm absorbance normalized to zero hour (substrate use), 10 hr [3]: 1.11 | 590 nm absorbance normalized to zero hour (substrate use), 11 hr [3]: 1.26

CC(=O)C(=O)O [Pyruvic Acid]
590 nm absorbance normalized to zero hour (substrate use), 1 hr [1]: 1.34 | 590 nm absorbance normalized to zero hour (substrate use), 2 hr [1]: 1.40 | 590 nm absorbance normalized to zero hour (substrate use), 3 hr [1]: 1.54 | 590 nm absorbance normalized to zero hour (substrate use), 4 hr [1]: 1.61 | 590 nm absorbance normalized to zero hour (substrate use), 6 hr [1]: 1.39 | 590 nm absorbance normalized to zero hour (substrate use), 8 hr [1]: 1.57 | 590 nm absorbance normalized to zero hour (substrate use), 9 hr [1]: 1.71 | 590 nm absorbance normalized to zero hour (substrate use), 10 hr [1]: 1.81 | 590 nm absorbance normalized to zero hour (substrate use), 11 hr [1]: 2.49 | Substrate use, 590 nm absorbance normalized to zero hour, 1 hr [1]: 1.34 | Substrate use, 590 nm absorbance normalized to zero hour, 5 hr [1]: 1.70 | Substrate use, 590 nm absorbance normalized to zero hour, 7 hr [1]: 1.52 | 590 nm absorbance normalized to zero hour (substrate use), 1 hr [4]: 1.27 | 590 nm absorbance normalized to zero hour (substrate use), 2 hr [4]: 0.82 | 590 nm absorbance normalized to zero hour (substrate use), 3 hr [4]: 0.94 | 590 nm absorbance normalized to zero hour (substrate use), 4 hr [4]: 1.20 | 590 nm absorbance normalized to zero hour (substrate use), 5 hr [4]: 1.10 | 590 nm absorbance normalized to zero hour (substrate use), 6 hr [4]: 1.09 | 590 nm absorbance normalized to zero hour (substrate use), 7 hr [4]: 1.06 | 590 nm absorbance normalized to zero hour (substrate use), 8 hr [4]: 0.67 | 590 nm absorbance normalized to zero hour (substrate use), 9 hr [4]: 0.65 | 590 nm absorbance normalized to zero hour (substrate use), 10 hr [4]: 0.75 | 590 nm absorbance normalized to zero hour (substrate use), 11 hr [4]: 0.61 | 590 nm absorbance normalized to zero hour (substrate use), 1 hr [3]: 1.27 | 590 nm absorbance normalized to zero hour (substrate use), 2 hr [3]: 0.82 | 590 nm absorbance normalized to zero hour (substrate use), 3 hr [3]: 0.94 | 590 nm absorbance normalized to zero hour (substrate use), 4 hr [3]: 1.20 | 590 nm absorbance normalized to zero hour (substrate use), 5 hr [3]: 1.10 | 590 nm absorbance normalized to zero hour (substrate use), 6 hr [3]: 1.09 | 590 nm absorbance normalized to zero hour (substrate use), 7 hr [3]: 1.06 | 590 nm absorbance normalized to zero hour (substrate use), 8 hr [3]: 0.67 | 590 nm absorbance normalized to zero hour (substrate use), 9 hr [3]: 0.65 | 590 nm absorbance normalized to zero hour (substrate use), 10 hr [3]: 0.75 | 590 nm absorbance normalized to zero hour (substrate use), 11 hr [3]: 0.61

OCc1ccccc1O[C@@H]1O[C@H](CO)[C@@H](O)[C@H](O)[C@H]1O [Salicin]
590 nm absorbance normalized to zero hour (substrate use), 1 hr [1]: 1.17 | 590 nm absorbance normalized to zero hour (substrate use), 2 hr [1]: 0.93 | 590 nm absorbance normalized to zero hour (substrate use), 3 hr [1]: 0.96 | 590 nm absorbance normalized to zero hour (substrate use), 4 hr [1]: 0.83 | 590 nm absorbance normalized to zero hour (substrate use), 6 hr [1]: 0.43 | 590 nm absorbance normalized to zero hour (substrate use), 8 hr [1]: 0.67 | 590 nm absorbance normalized to zero hour (substrate use), 9 hr [1]: 0.66 | 590 nm absorbance normalized to zero hour (substrate use), 10 hr [1]: 0.62 | 590 nm absorbance normalized to zero hour (substrate use), 11 hr [1]: 0.62 | Substrate use, 590 nm absorbance normalized to zero hour, 1 hr [1]: 1.17 | Substrate use, 590 nm absorbance normalized to zero hour, 5 hr [1]: 0.78 | Substrate use, 590 nm absorbance normalized to zero hour, 7 hr [1]: 0.69 | Substrate use, 590 nm absorbance normalized to zero hour, 1 hr [5]: 0.77 | Substrate use, 590 nm absorbance normalized to zero hour, 5 hr [5]: 1.64 | Substrate use, 590 nm absorbance normalized to zero hour, 7 hr [5]: 1.87 | 590 nm absorbance normalized to zero hour (substrate use), 1 hr [4]: 0.77 | 590 nm absorbance normalized to zero hour (substrate use), 2 hr [4]: 1.06 | 590 nm absorbance normalized to zero hour (substrate use), 3 hr [4]: 1.26 | 590 nm absorbance normalized to zero hour (substrate use), 4 hr [4]: 1.36 | 590 nm absorbance normalized to zero hour (substrate use), 6 hr [4]: 1.76 | 590 nm absorbance normalized to zero hour (substrate use), 8 hr [4]: 2.01 | 590 nm absorbance normalized to zero hour (substrate use), 9 hr [4]: 2.26 | 590 nm absorbance normalized to zero hour (substrate use), 10 hr [4]: 2.38 | 590 nm absorbance normalized to zero hour (substrate use), 11 hr [4]: 2.62
